Results on four compounds are retold here after patent US11096930B2, “Substituted imidazopyridine compounds as inhibitors of indoleamine 2,3-dioxygenase and/or tryptophan-2,3-dioxygenase” (IOMet Pharma Ltd., priority 2016, dated 2021).

The target of experiment [1] is T1, IDO1 (Homo sapiens (Human), UniProt P14902). Description: IDO1 HEK293 Cellular Assay. It is filed as cell-based. Particulars: HEK293 cells transfected with Flag-IDO1 vector; read-out: HEK293 Cell Assay, pIC50 (converted). The protocol: IDO1 HEK293 Cellular Assay
Compounds to be tested were serially diluted in ten 3-fold steps in DMSO starting from 10 mM DMSO stocks. Compound dilutions or DMSO alone were then dispensed from the dilution plate into a Greiner black 384-well assay plate (catalog #781086) using an Echo 550 acoustic liquid handler (Labcyte).
HEK293 cell pellets were resuspended to 5×10^5 cells/mL in complete HEK293 culture media (89% DMEM, 10% FBS, 1% penicilllin/streptomycin). Suspended cells (2 mL) were dispensed into each well of a 6-well Corning plate (Catalog #3516). Cells were allowed to attach and were incubated for 20 hours at 37 degrees Celsius in a 5% CO2 incubator. Flag-IDO1 vector (Genscript True ORF Gold, 2 ug) in 150 uL of Opti-MEM medium was added to each well of a Corning 24 well plate (Cat #3527) and incubated for 5 minutes at room temperature. To each well of the 24-well plate was added 150 μL Lipofectamine 2000 (Gibco) and the plate incubated at room temperature for 20-30 minutes. To each well of attached cells in the 6-well plate, 250 μL of the transfection mix from the 24-well plate was gently added to each well and IDO1 protein was allowed to express for 24-30 hours at 37 degrees Celsius in a 5% CO2 incubator.
Media was removed from the cells which were then washed with 2 mL Dulbecco's phosphate-buffered saline (DPBS). After removal of DPBS, 0.5 mL of TrypLE (Gibco) was added and incubated at 5 minutes until cells lift from the surface of the wells. Complete HEK293 culture media (4 mL) was added to each well and cells were collected and pooled into a conical tube. Cells were pelleted at 200×g for 5 minutes and resuspended in an equal volume of complete DMEM medium. Cells were diluted to 4×10^5 cells per mL in complete HEK293 media. L-Tryptophan was added to added to give a final concentration of 200 μM. The diluted transfected cells (50 μL) or nontransfected cells (50 μL) were dispensed into wells of Greiner black 384-well assay plates (catalog #781086) containing previously diluted compounds. The plate is briefly mixed and centrifuged at 200×g for 10 seconds to collect cells at the bottom of the plate. Plates were covered and incubated for 20-24 hours at 37 degrees C. in a 5% CO2 incubator. […] The resulting fluoresence was measured in an Envision plate reader (Perkin Elmer) with a 400/25 nm excitation filter and an 510/20 nm emission filter.
The fluoresence intensity of each well was corrected for the background observed in wells with untransfected cells and was expressed as a fraction of the intensity observed in wells of IDO1 transfected cells and DMSO only. Potencies were calculated by linear least squares fit to the four parameter logistic IC50 equation.

Experiment [2] deals with T1, IDO1. Description: IDO1 Enzyme Assay. Format: biochemical. The following applies: HIS-tagged IDO1, fluorescence. As to the method: Compounds to be tested were serially diluted in ten 3-fold steps in DMSO starting from 10 mM DMSO stocks. Compound dilutions or DMSO alone were then dispensed from the dilution plate into a Greiner black 384-well assay plate (catalog #781086) using an Echo 555 acoustic liquid handler (Labcyte).
HIS-tagged IDO1 protein was recombinantly expressed in Escherichia coli using ZYP5052 autoinduction media supplemented with 500 μM delta aminolevulinic acid for 48 hours at 16 degrees Celsius. IDO1 protein was purified using Ni^2+-affinity resin and size exclusion chromatography. Purified protein was then diluted in assay buffer (50 mM Tris pH 7.0, 1% glycerol, 20 μM methylene blue, 0.05% Tween-20, 20 mM sodium ascorbate, 100 units/mL catalase to obtain a final IDO1 concentration of 40 nM. […] were dispensed to wells of the assay plate using a BioRAPTR liquid dispenser (Beckman Coulter). Assay plates containing compound and IDO1 enzyme were incubated at room temperature for 30 minutes. Afterwards, 10 μL of 400 μM tryptophan in assay buffer were added to each well of the assay plate using a BioRAPTR liquid dispenser. Plates were incubated at room temperature for 60 minutes and reactions were quenched by addition of 10 μL of 0.5 M methyl isonipecotate in dimethyl sulfoxide. Plates were sealed and incubated at 37 degrees Celsius for 4 hours or 50 degrees Celsius for 2 hours. The plates are allowed to cool and then centrifuged for 1 minute at 1000×g. The resulting fluoresence was measured in an Envision plate reader (Perkin Elmer) with a 400/25 nm excitation filter and an 510/20 nm emission filter.
Potencies were calculated by linear least squares fit to the four parameter logistic IC50 equation.

SMILES strings stand for the structures.

T1 sequence (P14902 whole entry): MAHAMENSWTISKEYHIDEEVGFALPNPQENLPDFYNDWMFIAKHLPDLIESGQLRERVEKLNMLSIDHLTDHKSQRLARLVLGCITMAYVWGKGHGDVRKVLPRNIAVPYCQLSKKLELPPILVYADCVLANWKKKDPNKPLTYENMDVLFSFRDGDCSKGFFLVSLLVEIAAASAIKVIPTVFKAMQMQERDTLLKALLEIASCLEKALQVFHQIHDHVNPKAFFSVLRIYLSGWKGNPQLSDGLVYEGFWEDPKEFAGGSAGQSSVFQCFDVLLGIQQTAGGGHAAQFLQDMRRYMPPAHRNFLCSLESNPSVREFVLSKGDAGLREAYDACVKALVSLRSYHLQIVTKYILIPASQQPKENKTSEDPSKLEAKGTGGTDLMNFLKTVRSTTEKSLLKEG

`O=C1OCCC12CCN(c1cc(C(F)(F)F)cc3cncn13)CC2` [Example 17, 8-(7-(trifluoromethyl)imidazo[1,5-a]pyridin-5-yl)-2-oxa-8-azaspiro[4.5]decan-1-one]: the IC50 at IDO1 [1] was 1580 nM. For the same compound, on IDO1 [2], the “IDO1 Enzyme Assay, pIC50” value came out at 5.7.

Take `CC1=NC2(CCN(c3cc(C(F)(F)F)cc4cncn34)CC2)C(=O)N1` [Example 18, 2-methyl-8-(7-(trifluoromethyl)imidazo[1,5-a]pyridin-5-yl)-1,3,8-triazaspiro[4.5]dec-1-en-4-one]: at IDO1 [1], the IC50 was 1580 nM. In addition, the “IDO1 Enzyme Assay, pIC50” value on IDO1 [2] stood at 5.7.

Turning to `O=C1NCCC12CCN(c1cc(C(F)(F)F)cc3cncn13)CC2` [Example 19, 8-(7-(trifluoromethyl)imidazo[1,5-a]pyridin-5-yl)-2,8-diazaspiro[4.5]decan-1-one], the IC50 at IDO1 [1] is 6310 nM. On IDO1 [2], the “IDO1 Enzyme Assay, pIC50” value was determined as 5.1.

For `CC(=O)N1CCC2(CC1)CCN(c1cc(C(F)(F)F)cc3cncn13)CC2` [Example 20, 1-(9-(7-(Trifluoromethyl)imidazo[1,5-a]pyridin-5-yl)-3,9-diazaspiro[5.5]undecan-3-yl)ethan-1-one], at IDO1 [1], the IC50 is 2000 nM. Further, the “IDO1 Enzyme Assay, pIC50” value on IDO1 [2] worked out at 5.2.
